Patent publication US11649222B2, “Compounds” (UNIVERSITETET I OSLO, priority 2016, dated 2023)
Counter-ions that a name gives are not always drawn. Like-named read-outs stand apart in the source and are kept apart here. Marks after values point to notes of the source that are not given here.

Columns and labels:
Format in all cases: cell-based
human hepG2 cells = experiment: In vitro toxicity in human hepG2 cells (AlamarBlue viability)
Protocol: For viability assays, cells were seeded in white 96-well Nunclon plates at a density of 20,000 cells/well and left overnight to adhere before experiments were conducted. Zn chelators dissolved in DMSO were added to white 96-well plates containing 20000 HepG2 cells/well at concentrations ranging from 1 to 1×10^−6 mM (max DMSO concentration never exceeded 1%) and incubated for 24 hours at 37° C. After 24 hours, AlamarBlue® cell viability reagent (Thermo Fisher, Carlsbad, USA) was added (10% final concentration) and incubated for 4 hours at 37° C.

[1] = test system: resistant gram-negative MBL-based bacteria; experiment: MICx: adjuvant concentration giving carbapenem MIC ≤ 2 mg/L
Protocol: (§1) • Plate bacterial strain(s) on appropriate media: • Gram-negative bacteria with ESBLs or carbapenemases: green agar plates with 100 mg/L ampicillin • Gram-negative bacteria without β-lactamases: green agar plates • Gram-positive bacteria (Staphylococci and Enterococci): blood agar plates • Incubate o.n. at 37° C. […] (Should be used within 15 min of preparation). • Dilute the 0.5 McFarland suspension 1:100 into MH broth. […] Plate 10 μl of the dilution on MH agar plates (×2). Incubate o.n. at 37° C., count the colonies and calculate the final CFU/ml inoculum in the plate by multiplying the average number of colonies with 10000 and divide by 2. The final inoculum should be between 3-7×10^5 CFU/ml. • Add 50 μl of the prepared bacterial suspension to each well in the microtiter plate except negative growth control. Preparation of Compounds/Antibiotics • Calculate the desired concentration-range and volume of the compounds/antibiotics in the assay. […] Dilute the stock solution in MH broth. Make subsequent 2-fold dilutions in MH broth of the desired concentrations if a concentration range is to be tested (remember the extra dilution factor in the assay plate). Always include extra volume for pipetting. Take into consideration stock solutions that are made in buffers that have an effect on bacterial growth (e.g. DMSO).

[2] = test system: K. pneumoniae K66-45 (NDM-1); experiment: Microbroth dilution MIC of carbapenem with/without inhibitor; conditions: K. pneumoniae K66-45 NDM-1; for Meropenem activity in presence of inhibitor: inhibitor 63 mg/L
Protocol: as §1

[3] = test system: P. aeruginosa K34-7 (VIM-2); experiment: as above; conditions: for Meropenem activity in presence of inhibitor: inhibitor 63 mg/L
Protocol: as §1

[4] = Homo sapiens, HepG2, read-out: IC50h
[5] = human hepG2 cells, 24 hours, AlamarBlue, 8 replicates, read-out: IC50
[6] = human hepG2 cells, read-out: IC50h
[7] = lowest concentration of compound X that results in a MIC value of ≤ 2 mg/L for carbapenem antibiotics
[8] = Homo sapiens, HepG2, estimated values (footnote c), read-out: IC50h

SMILES: O=C(O)CN1CCN(CC(=O)O)CCN([C@H](CO)[C@H](O)CO)CCN(CC(=O)O)CC1 [Butrol, reference compound]
- IC50 (human hepG2 cells; estimated values (footnote c), read-out: IC50h): 60 µM
- MICx ([1]; estimated values (footnote c)): 15^c μM

SMILES: CCOCCOCCOCCN(CCN(Cc1ccccn1)Cc1ccccn1)Cc1ccccn1 [Example 9, N1-(2-(2-(2-ethoxyethoxy)ethoxy)ethyl)-N1,N2,N2-tris(pyridin-2-ylmethyl)ethane-1,2-diamine]
- Meropenem activity in presence of inhibitor [2]: ≤0.5 mg/L
- Meropenem activity in presence of inhibitor [3]: ≤0.5 mg/L

SMILES: COC(=O)c1ccc(CN(Cc2ccccn2)Cc2ccccn2)nc1 [Example 12, methyl 6-((bis(pyridin-2-ylmethyl)amino)methyl)nicotinate]
- IC50 (human hepG2 cells; Homo sapiens, HepG2, 24 h): 16.5 µM
- IC50 (human hepG2 cells; [4]): 16.4 µM
- MICx [1]: 31 µM

SMILES: OCc1ccc(CN(Cc2ccccn2)Cc2ccccn2)nc1 [Example 14, (6-((bis(pyridin-2-ylmethyl)amino)methyl)pyridin-3-yl) methanol]
- IC50 (human hepG2 cells; [5]): 12.4 µM
- IC50 (human hepG2 cells; [6]): 12.4 µM
- MICx [1, 7]: 31 µM

SMILES: CC(=O)OC[C@H]1OC(OC(C)=O)[C@H](NC(=O)Cc2ccc(NC(=O)CN(CCN(Cc3ccccn3)Cc3ccccn3)Cc3ccccn3)cc2)[C@@H](OC(C)=O)[C@@H]1OC(C)=O (stereo partly drawn) [Example 22a, (3R,4R,5S,6R)-6-(acetoxymethyl)-3-(2-(4-(2-((2-(bis(pyridin-2-ylmethyl)amino)ethyl)(pyridin-2-ylmethyl)amino)acetamido)phenyl)acetamido) tetrahydro-2H-pyran-2,4,5-triyltriacetate]
- Meropenem activity in presence of inhibitor [2]: 0.25 mg/L
- Meropenem activity in presence of inhibitor [3]: 1 mg/L

SMILES: O=C(CN(CCN(Cc1ccccn1)Cc1ccccn1)Cc1ccccn1)Nc1ccc(CC(=O)NC(CO)(CO)CO)cc1 [Example 24, 2-((2-(bis(pyridin-2-ylmethyl)amino)ethyl)(pyridin-2-ylmethyl)amino)-N-(4-(2-(1,3-dihydroxy-2-(hydroxymethyl)propan-2-ylamino)-2-oxoethyl)phenyl)acetamide]
- IC50 (human hepG2 cells; [6]): 60 µM
- MICx [1, 7]: 31 µM

SMILES: O=C(CN(CCN(Cc1ccccn1)Cc1ccccn1)Cc1ccccn1)Nc1ccc(CCNC(=O)c2cnccn2)cc1 [Example 27, N-(4-(2-((2-(bis(pyridin-2-ylmethyl)amino)ethyl)(pyridin-2-ylmethyl)amino)acetamido)phenethyl)pyrazine-2-carboxamide]
- Meropenem activity in presence of inhibitor [2]: 0.125 mg/L
- Meropenem activity in presence of inhibitor [3]: 1 mg/L

SMILES: OC[C@H]1OC(O)[C@H](n2cc(CN(Cc3ccccn3)Cc3ccccn3)nn2)[C@@H](O)[C@@H]1O (stereo partly drawn) [Example 84, (3R,4R,5S,6R)-3-(4-((bis(pyridin-2-ylmethyl)amino)methyl)-1H-1,2,3-triazol-1-yl)-6-(hydroxymethyl)tetrahydro-2H-pyran-2,4,5-triol]
- IC50 (human hepG2 cells; [5]): > 1000 µM
- IC50 (human hepG2 cells; [6]): 116 µM
- MICx [1, 7]: 125 µM

SMILES: OC1O[C@H](Cn2cc(CN(CCN(Cc3ccccn3)Cc3ccccn3)Cc3ccccn3)nn2)[C@H](O)[C@H](O)[C@H]1O (some centres unmarked) [Example 91]
- IC50 (human hepG2 cells; [5]): 165 µM
- IC50 (human hepG2 cells; [6]): 165 µM
- MICx [1, 7]: 31 µM

SMILES: CN(C[C@H](O)[C@@H](O)[C@H](O)[C@H](O)CO)C(=O)Cc1ccc(-n2cc(CN(Cc3ccccn3)Cc3ccccn3)nn2)cc1 [Example 96, 2-(4-(4-((bis(pyridin-2-ylmethyl)amino)methyl)-1H-1,2,3-triazol-1-yl)phenyl)-N-methyl-N-((2S,3R,4R,5R)-2,3,4,5,6-pentahydroxyhexyl)acetamide]
- IC50 (human hepG2 cells; [5]): > 1000 µM
- IC50 (human hepG2 cells; [6]): ≥ 118 µM
- MICx [1, 7]: 125 µM

SMILES: O=C(NC[C@@H](O)CO)c1ccc(CN(Cc2ccccn2)Cc2ccccn2)nc1 [Example 97, (R)-6-((bis(pyridin-2-ylmethyl)amino)methyl)-N-(2,3-dihydroxypropyl)nicotinamide]
- IC50 (human hepG2 cells; [5]): 131 µM

SMILES: O=C(Cc1ccc(-n2cc(CN(Cc3ccccn3)Cc3ccccn3)nn2)cc1)NC(CO)(CO)CO [Example 98, 2-(4-(4-((bis(pyridin-2-ylmethyl)amino)methyl)-1H-1,2,3-triazol-1-yl)phenyl)-N-(1,3-dihydroxy-2-(hydroxymethyl)propan-2-yl)acetamide]
- IC50 (human hepG2 cells; [5]): 259 µM
- IC50 (human hepG2 cells; [6]): 259 µM
- MICx [1, 7]: 125 µM

SMILES: O=C(NCCc1ccc(-n2cc(CN(Cc3ccccn3)Cc3ccccn3)nn2)cc1)[C@H]1O[C@H](O)[C@H](O)[C@@H](O)[C@H]1O [Example 101, (2S,3R,4S,5R,6S)—N-(4-(4-((Bis(pyridin-2-ylmethyl)amino)methyl)-1H-1,2,3-triazol-1-yl)phenethyl)-3,4,5,6-tetrahydroxytetrahydro-2H-pyran-2-carboxamide]
- IC50 (human hepG2 cells; [5]): ~220 µM

SMILES: O=C(NC(CO)(CO)CO)c1ccc(CN(Cc2ccccn2)Cc2ccccn2)nc1 [Example 103, 6-((bis(pyridin-2-ylmethyl)amino)methyl)-N-(1,3-dihydroxy-2-(hydroxymethyl)propan-2-yl)nicotinamide]
- IC50 (human hepG2 cells; [5]): 67.6 µM
- IC50 (human hepG2 cells; [6]): 67.6 µM
- MICx [1, 7]: 31 µM

SMILES: O=C(Cc1ccc(-n2cc(CN(Cc3ccccn3)Cc3ccccn3)nn2)cc1)NC[C@H](O)CO [Example 104, (S)-2-(4-(4-((bis(pyridin-2-ylmethyl)amino)methyl)-1H-1,2,3-triazol-1-yl)phenyl)-N-(2,3-dihydroxypropyl)acetamide]
- IC50 (human hepG2 cells; [5]): 224 µM

SMILES: O=C(c1ccc(CN(Cc2ccccn2)Cc2ccccn2)nc1)N1CCNCC1 [Example 105, (6-((bis(pyridin-2-ylmethyl)amino)methyl)pyridin-3-yl)(piperazin-1-yl)methanone]
- IC50 (human hepG2 cells; [8]): 100 µM
- IC50 (human hepG2 cells; [5]): ~210 µM
- MICx [1, 7]: 31 µM

SMILES: O=C(CNCCc1ccc(NC(=O)CN(CCN(Cc2ccccn2)Cc2ccccn2)Cc2ccccn2)cc1)NCC(O)CO (centres unmarked) [Example 108]
- IC50 (human hepG2 cells; [5]): > 1000 µM

SMILES: O=C(O)CNC(=O)CNC(=O)c1ccc(CN(Cc2ccccn2)Cc2ccccn2)nc1 [Example 109]
- IC50 (human hepG2 cells; [5]): 128 µM

SMILES: NCc1ccc(CN(Cc2ccccn2)Cc2ccccn2)nc1 [Example 147, 1-(5-(aminomethyl)pyridin-2-yl)-N,N-bis(pyridin-2-ylmethyl) methanamine hydrochloride]
- IC50 (human hepG2 cells; Homo sapiens, HepG2, 24 h): ~10 µM

SMILES: O=C(O)C[C@@H]1CC[C@H](NC(=O)c2ccc(CN(Cc3ccccn3)Cc3ccccn3)nc2)B(O)O1 [Example 163, 2-((3R,6S)-3-(6-((Bis(pyridin-2-ylmethyl)amino)methyl)nicotinamido)-2-hydroxy-1,2-oxaborinan-6-yl)acetic acid]
- IC50 (human hepG2 cells; [8]): 100 µM

SMILES: COC(=O)c1ccc(CN(Cc2ccccc2)Cc2ccccn2)nc1 [Example 186, methyl 6-((benzyl(pyridin-2-ylmethyl)amino)methyl)nicotinate]
- IC50 (human hepG2 cells; [5]): ~215 µM

SMILES: c1ccc(CN(Cc2ccccn2)Cc2ccccn2)nc1 [TPA, N,N,N-tris(2-pyridylmethyl) amine, reference compound]
- EC50 (human hepG2 cells; Homo sapiens, HepG2): 10 µM

SMILES: CN[C@H](CC(C)C)C(=O)N[C@H]1C(=O)N[C@@H](CC(N)=O)C(=O)N[C@H]2C(=O)N[C@H]3C(=O)N[C@H](C(=O)N[C@H](C(=O)O)c4cc(O)cc(O)c4-c4cc3ccc4O)[C@H](O)c3ccc(c(Cl)c3)Oc3cc2cc(c3O[C@@H]2O[C@H](CO)[C@@H](O)[C@H](O)[C@H]2O[C@H]2C[C@](C)(N)[C@H](O)[C@H](C)O2)Oc2ccc(cc2Cl)[C@H]1O [Vancomycin, reference compound]
- IC50 (human hepG2 cells; [4]): 20 µM
- MICx [1]: > 1000^d μM

SMILES: C[C@@H](O)[C@H]1C(=O)N2C(C(=O)O)=C(S[C@@H]3CN[C@H](CNS(N)(=O)=O)C3)[C@H](C)[C@H]12 [doripenem, reference compound]
- MIC ([2]; Klebsiella pneumoniae, read-out: MIC of doripenem alone): > 64 µg/mL
- MIC ([3]; Pseudomonas aeruginosa, read-out: MIC of doripenem alone): 64 µg/mL
